From US12486280B2, “CDK inhibitors and uses thereof” (California Institute of Technology, priority 2018, dated 2025)
Values after ≈ are worked out from the molar mass of the structure shown. Like-named read-outs stand apart in the source and are kept apart here.

Assays:
[1] = system: CYP isozymes (IC50s averaged over the isozymes); assay: CYP Enzymatic Inhibition Assay in human liver microsomes
Protocol: Inhibition of various CYP isozymes was measured for each compound using a CYP enzyme inhibition assay in human liver microsomes (HLM). Compounds and standard inhibitors were prepared at a 100× working solutions. Substrates or PBS were added to the corresponding wells followed by addition of compounds, solvent or positive control working solution to corresponding wells. HLMs were added to the pre-warmed (37° C.) plate and mixed with NADPH cofactor for 10 minutes at 37° C. The reaction was terminated by adding 400 μL cold stop solution (200 ng/mL Tolbutamide and 200 ng/mL Labetalol in ACN). The plate was centrifuged at 4,000 rpm for 20 minutes, and supernatant was transferred to 100 μL HPLC water followed by LC/MS/MS analysis.

[2] = Measurement of Compound Metabolic Stability in hepatocytes
Protocol: The metabolic stability of compounds was determined in hepatocytes from mice and rats. Compounds were diluted to 5 μM in Williams' Medium E from 10 mM stock solutions. 10 μL of each compound was aliquoted into a well of a 96-well plate and reactions were started by aliquoting 40 μL of a 625,000 cells/mL suspension into each well. The plate was incubated at 37° C. with 5% CO2. At each corresponding time point, the reaction was stopped by quenching with ACN containing internal standards (IS) at a 1:3. Plates were shaken at 500 rpm for 10 min, and then centrifuged at 3,220×g for 20 minutes. Supernatants were transferred to another 96-well plate containing a dilution solution. Supernatants were analyzed by LC/MS/MS. Compound half-life was estimated using the following equation:

[3] = system: drug-sensitive cell lines of Table 2 (EFM-19, MDA-MB-453, T-47D, ZR-75-1, NCI-H441, OVTOKO, NCI-H1838); assay: Cell Line Growth Retardation Assay, sensitive cohort; type: cell-based, human; details: for IC50: Homo sapiens, geometric mean over sensitive cohort, 6 days growth, read-out: AvgSensIC50; for Ther Window: average IC50 drug-resistant group divided by average IC50 drug-sensitive group
Protocol: (§1) Cells were seeded at densities of 1,000-5,000 cells per well in 48-well tissue culture plates. After a 24 hours rest period, cells were treated with compound at 10 μM, 2 μM, 0.4 μM, 0.08 μM, 0.016 μM, and 0.0032 μM. A group of cells were treated with the vehicle in which the compound was prepared and served as a control. The cells were grown in the presence of compounds for 6 days and were counted on day 0 and day 6. A11 cell counting was performed using a Synentec Cellavista plate imager. […] Growth inhibition was calculated as a ratio of cell population doublings in the presence of compound versus the absence of compound. […] IC50 values for each compound (see Table 3; reported in μM) were calculated by fitting curves to data points from each dose-response assay using the Proc NLIN function in SAS for Windows version 9.2 (SAS Institute, Inc.).
(§2) These sensitive and resistant cohorts were interrogated for response to each compound, and IC50s were calculated for each cell line using the same technique described above. Average IC50s for the sensitive and resistant cohorts were calculated as geometric means of the group. “Therapeutic Window” for each compound was calculated by dividing the average IC50 for the drug-resistant group by the average IC50 for the drug-sensitive group.

[4] = Caco-2 Assay (Papp A to B); details: human, Caco-2, pH 7.4
[5] = molecular target: hERG potassium channels (Homo sapiens (Human), UniProt Q12809); assay: hERG Inhibition Assay (QPatch automated patch clamp, CHO cells); details: percent of control current
Sequence of hERG potassium channels (Q12809 whole entry): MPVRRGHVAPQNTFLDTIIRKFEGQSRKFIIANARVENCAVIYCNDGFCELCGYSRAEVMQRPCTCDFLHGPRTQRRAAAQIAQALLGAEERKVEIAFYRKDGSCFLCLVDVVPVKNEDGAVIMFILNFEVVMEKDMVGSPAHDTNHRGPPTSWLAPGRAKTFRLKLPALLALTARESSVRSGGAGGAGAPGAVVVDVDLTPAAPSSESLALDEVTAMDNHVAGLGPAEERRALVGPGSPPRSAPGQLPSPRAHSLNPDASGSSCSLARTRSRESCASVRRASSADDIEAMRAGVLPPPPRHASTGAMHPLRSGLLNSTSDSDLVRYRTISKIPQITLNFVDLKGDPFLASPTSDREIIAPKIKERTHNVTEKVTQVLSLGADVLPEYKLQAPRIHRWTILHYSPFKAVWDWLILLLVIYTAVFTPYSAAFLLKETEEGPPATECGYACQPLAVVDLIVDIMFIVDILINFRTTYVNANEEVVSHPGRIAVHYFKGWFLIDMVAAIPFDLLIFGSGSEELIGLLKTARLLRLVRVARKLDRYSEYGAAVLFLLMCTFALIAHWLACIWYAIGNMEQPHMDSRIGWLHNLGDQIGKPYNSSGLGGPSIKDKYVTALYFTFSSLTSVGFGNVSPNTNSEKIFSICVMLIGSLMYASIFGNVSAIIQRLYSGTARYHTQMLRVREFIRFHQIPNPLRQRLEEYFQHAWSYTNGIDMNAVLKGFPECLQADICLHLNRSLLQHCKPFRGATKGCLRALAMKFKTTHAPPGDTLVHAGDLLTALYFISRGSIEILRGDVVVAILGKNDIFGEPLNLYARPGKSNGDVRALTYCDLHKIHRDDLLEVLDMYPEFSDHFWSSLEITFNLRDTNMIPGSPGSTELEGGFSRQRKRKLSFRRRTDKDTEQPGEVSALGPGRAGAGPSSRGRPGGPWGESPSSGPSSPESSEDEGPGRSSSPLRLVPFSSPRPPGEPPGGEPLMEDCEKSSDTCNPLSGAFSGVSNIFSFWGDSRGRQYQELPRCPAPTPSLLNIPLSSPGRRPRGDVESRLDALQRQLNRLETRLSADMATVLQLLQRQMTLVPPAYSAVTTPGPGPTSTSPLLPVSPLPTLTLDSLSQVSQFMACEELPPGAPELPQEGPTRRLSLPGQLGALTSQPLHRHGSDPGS
Protocol: Effects of compounds on hERG potassium channel conductance was assessed using the automated patch clamp method QPatch^HTX. Compounds were prepared at 10 mM stocks. CHO cells stably expressing hERG potassium channels were used for this assay. Cells were cultured in a humidified and air-controlled 5% CO2) incubator at 37° C. Compound stocks and the positive control Amitriptyline were dissolved in 100% DMSO to make various solution concentrations. These solutions were further diluted into extracellular solution to achieve final concentrations for testing. The final DMSO concentration in extracellular solution was 0.30%. The hERG QPatch^HTX assay was conducted at room temperature.
The following voltage command protocol was used: • From the holding potential of −80 mV, the voltage was first stepped to −50 mV for 80 ms for leak subtraction, and then stepped to +20 mV for 4,800 ms to open hERG channels. • After which, the voltage was stepped back down to −50 mV for 5,000 ms, causing a “rebound” or tail current, which was measured and collected for data analysis. • Finally, the voltage was stepped back to the holding potential of −80 mV for 3,100 ms.
For each experiment, three additions of 5 μL of the vehicle were applied, followed by 30 runs of the voltage command protocol for a baseline period. Then, the ascending doses of each compound were added with three repetitions (5 μL of compound each time).

[6] = Compound Solubility Assay (kinetic solubility); type: physicochemical; details: kinetic from dmso stock
Protocol: The relative kinetic solubility of each compound was determined at both low (1.2) and neutral (7.4) pH. Compounds were prepared at 10 mM stocks. […] Compounds were allowed to shake at room temperature for 24 hours in 50 mM phosphate buffer pH 7.4, or in SGF buffer pH 1.2 at 37° C. for 24 hours.

[7] = system: drug-resistant cell lines of Table 2 (NCI-H1437, OV207, HCC1806, NCI-H2172); assay: Cell Line Growth Retardation Assay, resistant cohort; type: cell-based, human; details: Homo sapiens, […], geometric mean over resistant cohort; 6 days growth; read-out: AvgResIC50
Protocol: as §1, §2

[8] = molecular target: CDK4 (Homo sapiens (Human), UniProt P11802); assay: Cdk4 and 6 Enzymatic Inhibition Assay (radiometric 33PanQinase, Ki determination); type: biochemical
Sequence of CDK4 (P11802 whole entry): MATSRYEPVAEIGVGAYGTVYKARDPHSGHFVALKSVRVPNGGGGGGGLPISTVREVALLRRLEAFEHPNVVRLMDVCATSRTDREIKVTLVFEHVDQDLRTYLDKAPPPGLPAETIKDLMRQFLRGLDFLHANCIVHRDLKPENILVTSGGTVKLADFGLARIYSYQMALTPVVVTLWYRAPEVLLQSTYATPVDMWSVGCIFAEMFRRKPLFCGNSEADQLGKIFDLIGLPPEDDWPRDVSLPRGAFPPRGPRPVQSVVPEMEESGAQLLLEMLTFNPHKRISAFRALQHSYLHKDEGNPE
Sequence of CDK4 (P24385 whole entry partner): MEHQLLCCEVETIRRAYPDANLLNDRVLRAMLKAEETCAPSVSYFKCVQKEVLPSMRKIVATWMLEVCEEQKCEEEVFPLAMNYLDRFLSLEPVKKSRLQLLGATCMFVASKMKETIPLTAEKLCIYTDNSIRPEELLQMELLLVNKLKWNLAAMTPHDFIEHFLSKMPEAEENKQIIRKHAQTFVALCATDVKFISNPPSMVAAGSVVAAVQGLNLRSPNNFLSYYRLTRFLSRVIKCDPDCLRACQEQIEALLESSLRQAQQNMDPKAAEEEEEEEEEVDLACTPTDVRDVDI
Protocol: (§3) 10 distinct concentrations were prepared, with a dilution endpoint of 6×10^−9 M in 100% DMSO. 100% DMSO was used as a control. 10 μL from each of the serial dilutions were aliquoted into separate wells of a 96-well plate and 90 μL of water were added to each of those wells. The plate was shaken thoroughly, and 5 μL from each of the plate's wells were transferred into wells of the assay plate. The final volume of wells in the assay plate was 50 μL. A11 compounds were tested at 10 assay concentrations in the range from 2×10^−6 M to 6×10^−11 M. The final DMSO concentration in the wells of the assay plate was 1% in all cases.
(§4) A radiometric protein kinase assay (33PanQinase® Activity Assay) was used for measuring the kinase activity of six protein kinases. A11 kinase assays were performed in 96-well FlashPlates™ from PerkinElmer (Boston, MA, USA). The assay for all protein kinases contained 70 mM HEPES-NaOH pH 7.5, 3 mM MgCl2, 3 mM MnCl2, 3 μM Na-orthovanadate, 1.2 mM DTT, 50 μg/mL PEG20000, ATP [γ-33P]-ATP (approx. 9×1005 cpm per well), protein kinase and substrate. The reaction cocktails were incubated at 30° C. for 60 minutes. The reaction was stopped with 50 μL of 2% (v/v) H3PO4, and plates were aspirated and washed two times with 200 μL 0.9% (w/v) NaCl. Incorporation of ^33Pi was determined with a microplate scintillation counter (Microbeta, Wallac).

[9] = molecular target: CDK6 (Homo sapiens (Human), UniProt Q00534); assay: as above; type: biochemical
Sequence of CDK6 (Q00534 whole entry): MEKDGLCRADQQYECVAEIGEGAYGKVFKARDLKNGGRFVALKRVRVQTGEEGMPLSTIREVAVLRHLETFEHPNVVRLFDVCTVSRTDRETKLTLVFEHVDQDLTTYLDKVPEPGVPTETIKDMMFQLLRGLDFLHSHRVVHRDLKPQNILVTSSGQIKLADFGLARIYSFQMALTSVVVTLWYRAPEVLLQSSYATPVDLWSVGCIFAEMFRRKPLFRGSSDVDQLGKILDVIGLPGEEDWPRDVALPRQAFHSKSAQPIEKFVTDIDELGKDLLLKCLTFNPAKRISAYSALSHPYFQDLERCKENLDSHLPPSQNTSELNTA
Sequence of CDK6 (P24385 whole entry partner): as the sequence (P24385 whole entry partner) above
Protocol: as §3, §4

[10] = 50 mM phosphate buffer, pH 7.4, aqueous buffer, read-out: KS7
[11] = simulated gastric fluid, kinetic solubility, SGF buffer pH 1.2, 37° C., 24 hours, read-out: KS1

Structure (SMILES) | IC50 at 10 min [1] | half-life at 1 μM [2] | IC50 [3] | Ther Window [3] | Papp A→B at 2 h, 2 μM [4] | hERG [5] | solubility kinetic at 24 h [6, 10] | solubility kinetic at 24 h [6, 11] | IC50 [7] | Ki [8] | Ki [9]
CCN(CC)CCC1(C)CN(Cc2ccc(Nc3ncc(F)c(-c4cc(F)c5nc(C)n(C(C)C)c5c4)n3)nc2)CCO1 (stereo in doubt) [Compound A3, (S)—N-(5-((2-(2-(diethylamino)ethyl)-2-methylmorpholino)methyl)pyridin-2-yl)-5-fluoro-4-(4-fluoro-1-isopropyl-2-methyl-1H-benzo[d]imidazol-6-yl)pyrimidin-2-amine] | 37200 nM | 2.17 h | 70 nM | 13.77 | 0.05 ×10⁻⁶ cm/s | 26.68% | 163 µM (≈ 96.6 µg/mL) | 200 µM (≈ 119 µg/mL) | 1000 nM | 2.04 nM | 7.39 nM
CNC(=O)C[C@]1(C)CN(Cc2ccc(Nc3ncc(F)c(-c4cc(F)c5nc(C)n(C(C)C)c5c4)n3)nc2)CCO1 [Compound A59, (R)-2-(4-((6-((5-fluoro-4-(4-fluoro-1-isopropyl-2-methyl-1H-benzo[d]imidazol-6-yl)pyrimidin-2-yl)amino)pyridin-3-yl)methyl)-2-methylmorpholin-2-yl)-A-methylacetamide] | 21200 nM | 0.0585 h | 210 nM | 4.76 | 0.7 ×10⁻⁶ cm/s | 25.3% |  | 199 µM (≈ 112 µg/mL) | 1000 nM | 1.46 nM | 10.1 nM
Cc1nc2c(F)cc(-c3nc(Nc4ccc(CN5CCO[C@](C)(C[C@@H](C)N(C)C)C5)cn4)ncc3F)cc2n1C(C)C [Compound A26] | 51500 nM | 1.49 h | 130 nM | 6.10 | 0.03 ×10⁻⁶ cm/s | 39.08% | 140 µM (≈ 81.2 µg/mL) | 200 µM (≈ 116 µg/mL) | 770 nM | 1.73 nM | 8.63 nM
Cc1nc2c(F)cc(-c3nc(Nc4ccc(CN5CCO[C@](C)(CCNCC(F)(F)F)C5)cn4)ncc3F)cc2n1C(C)C [Compound A9, (R)-5-fluoro-4-(4-fluoro-1-isopropyl-2-methyl-1H-benzo[d]imidazol-6-yl)-N-(5-((2-methyl-2-(2-((2,2,2-trifluoroethyl)amino)ethyl)morpholino)methyl)pyridin-2-yl)pyrimidin-2-amine] | 26100 nM | 0.254 h | 120 nM | 8.59 | 2.14 ×10⁻⁶ cm/s | 21.86% | 1 µM (≈ 0.619 µg/mL) | 200 µM (≈ 124 µg/mL) | 1000 nM | 2.54 nM | 14.5 nM
Cc1nc2c(F)cc(-c3nc(Nc4ccc(CN5CC6(C5)CS(=O)(=O)C6)cn4)ncc3F)cc2n1C(C)C [Compound A62, 6-((6-((5-fluoro-4-(4-fluoro-1-isopropyl-2-methyl-1H-benzo[d]imidazol-6-yl)pyrimidin-2-yl)amino)pyridin-3-yl)methyl)-2-thia-6-azaspiro[3.3]heptane 2,2-dioxide] | 33900 nM | 0.565 h | 90 nM | 8.11 | 0.15 ×10⁻⁶ cm/s | 40.8% | 1 µM (≈ 0.54 µg/mL) | 190 µM (≈ 103 µg/mL) | 730 nM | 0.59 nM | 3.8 nM
Cc1nc2c(F)cc(-c3nc(Nc4ccc(CN5CCO[C@](C)(CCN6CCOCC6)C5)cn4)ncc3F)cc2n1C(C)C [Compound A19, (R)-5-fluoro-4-(4-fluoro-1-isopropyl-2-methyl-1H-benzo[d]imidazol-6-yl)-N-(5-((2-methyl-2-(2-morpholinoethyl)morpholino)methyl)pyridin-2-yl)pyrimidin-2-amine] | 29000 nM | 0.28 h | 190 nM | 5.12 | 0.91 ×10⁻⁶ cm/s | 18.14% | 139 µM (≈ 84.2 µg/mL) | 200 µM (≈ 121 µg/mL) | 970 nM | 1.37 nM | 7.07 nM
Cc1nc2c(F)cc(-c3nc(Nc4ccc(CN5CCNC(C)(C)C5)cn4)ncc3F)cc2n1C(C)C [Compound A44, N-(5-((3,3-dimethylpiperazin-1-yl)methyl)pyridin-2-yl)-5-fluoro-4-(4-fluoro-1-isopropyl-2-methyl-1H-benzo[d]imidazol-6-yl)pyrimidin-2-amine] | 64200 nM | 1.35 h | 90 nM | 10.25 | 0.01 ×10⁻⁶ cm/s | 10.84% | 6.3 µM (≈ 3.19 µg/mL) | 200 µM (≈ 101 µg/mL) | 960 nM | 0.7 nM | 3.04 nM
Cc1nc2c(F)cc(-c3nc(Nc4ccc(CN5CCO[C@](C)(C[C@H](C)N(C)C)C5)cn4)ncc3F)cc2n1C(C)C [Compound A27] | 25800 nM | 1.19 h | 80 nM | 11.50 | 0.06 ×10⁻⁶ cm/s | 24.78% | 107 µM (≈ 61.9 µg/mL) | 200 µM (≈ 116 µg/mL) | 900 nM | 1.21 nM | 6.57 nM
Cc1nc2c(F)cc(-c3nc(Nc4ccc(CN5CCO[C@](C)(CCN6CC[C@@H](F)C6)C5)cn4)ncc3F)cc2n1C(C)C [Compound A15, 5-fluoro-4-(4-fluoro-1-isopropyl-2-methyl-1H-benzo[d]imidazol-6-yl)-N-(5-(((R)-2-(2-((R)-3-fluoropyrrolidin-1-yl)ethyl)-2-methylmorpholino)methyl)pyridin-2-yl)pyrimidin-2-amine] | 17100 nM | 0.322 h | 80 nM | 7.07 | 0.8 ×10⁻⁶ cm/s | 17.46% |  |  | 590 nM | 0.78 nM | 4.04 nM
COC1(C)CN(CC[C@]2(C)CN(Cc3ccc(Nc4ncc(F)c(-c5cc(F)c6nc(C)n(C(C)C)c6c5)n4)nc3)CCO2)C1 [Compound A18, (R)-5-fluoro-4-(4-fluoro-1-isopropyl-2-methyl-1H-benzo[d]imidazol-6-yl)-N-(5-((2-(2-(3-methoxy-3-methylazetidin-1-yl)ethyl)-2-methylmorpholino)methyl)pyridin-2-yl)pyrimidin-2-amine] | 26800 nM | 1.13 h | 90 nM | 10.77 | 0.11 ×10⁻⁶ cm/s | 21.45% |  |  | 920 nM | 1.55 nM | 7.62 nM
Cc1nc2c(F)cc(-c3nc(Nc4ccc(CN5CCO[C@](C)(CCN6CCCC6)C5)cn4)ncc3F)cc2n1C(C)C [Compound A16, (R)-5-fluoro-4-(4-fluoro-1-isopropyl-2-methyl-1H-benzo[d]imidazol-6-yl)-N-(5-((2-methyl-2-(2-(pyrrolidin-1-yl)ethyl)morpholino)methyl)pyridin-2-yl)pyrimidin-2-amine] | 47900 nM | 3.61 h | 60 nM | 15.20 | 0.01 ×10⁻⁶ cm/s | 18.09% |  |  | 870 nM | 1.42 nM | 5.81 nM
